*1 amine or outer side, *2 acyl side, *3 side chain or, on linkers, in order; H or OH if unused. Where a SMILES comes first, the peptide text is derived from it. Bridges are numbered along the chain shown (N, C = ends). [ ]: non-standard residue; d: D form. Ala(pyrimidin-5-yl) = N[C@@H](Cc1cncnc1)C(=O)O; Phe(4-CH2NH2) = NCc1ccc(C[C@H](N)C(=O)O)cc1; X25 = O=C([C@H](Cc1ccc(F)nc1)N[*:1])[*:2]; X27 = Cc1ccc(C[C@H](N[*:1])C(=O)[*:2])cn1; Phe(3-Me) = Cc1cccc(C[C@H](N)C(=O)O)c1; Phe(4-F) = N[C@@H](Cc1ccc(F)cc1)C(=O)O; X40 = CC(C)(F)C[C@H](N[*:1])C(=O)[*:2]; 1Nal = N[C@@H](Cc1cccc2ccccc12)C(=O)O; Ala(cPent) = N[C@@H](CC1CCCC1)C(=O)O; Phe(2-F) = N[C@@H](Cc1ccccc1F)C(=O)O; NMe3Pal = CN[C@@H](Cc1cccnc1)C(=O)O; X1 = O=C(C12CC(CN[*:1])(C1)C2)[*:2]; X17 = O=C([C@H](CCCCF)N[*:1])[*:2]; NMeF = CN[C@@H](Cc1ccccc1)C(=O)O; PhLac = O=C(O)[C@@H](O)Cc1ccccc1; X4 = O=C([C@H](CCCF)N[*:1])[*:2]; 3Pal = N[C@@H](Cc1cccnc1)C(=O)O; d(αMeC) = C[C@@](N)(CS)C(=O)O; Ahp(2) = CCCCC[C@H](N)C(=O)O; Cba = N[C@@H](CC1CCC1)C(=O)O; hLeu = CC(C)CC[C@H](N)C(=O)O; αMeC = C[C@](N)(CS)C(=O)O; NMeA = CN[C@@H](C)C(=O)O; Nle = CCCC[C@H](N)C(=O)O
The compounds below were run against phosphorylation levels of ERK1/2 in AsPC-1 (homozygous KRAS-G12D) cells (Homo sapiens, UniProt P01116, G12D) (assay: Cellular phospho-ERK assay in AsPC-1 cells (Alpha Screen), assay medium without fetal bovine serum). Conditions: phospho-ERK AlphaScreen, 18 h.
Chain of phosphorylation levels of ERK1/2 in AsPC-1 (homozygous KRAS-G12D) cells (P01116 1-186 G12D): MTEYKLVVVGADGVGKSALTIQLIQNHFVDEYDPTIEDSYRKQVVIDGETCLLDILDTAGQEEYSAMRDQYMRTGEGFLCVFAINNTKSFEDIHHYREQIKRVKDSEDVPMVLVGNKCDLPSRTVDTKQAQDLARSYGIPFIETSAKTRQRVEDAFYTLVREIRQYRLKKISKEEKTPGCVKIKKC
Type: cell-based
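Further: signal taken as phospho-ERK over total ERK per well, both detected in one multiplex bead assay, EC50 from four-parameter logistic fit of dose-response curves.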

SMILES	EC50 [µM]
C[C@H]1C(=O)N[C@@H](Cc2cncnc2)C(=O)N[C@@H](CCCCF)C(=O)N[C@@H](Cc2ccccc2F)C(=O)N[C@@H](CCCCF)C(=O)N(C)[C@@H](Cc2ccccc2)C(=O)NCC23CC(C2)(C3)C(=O)O[C@@H](Cc2ccccc2)C(=O)N1C [compound 128, cyclo(FLac-NMeA-PyrimAla-NleF-Phe2F-NleF-NMeF-amBCP)] (cyclo([NMeA][Ala(pyrimidin-5-yl)][X17][Phe(2-F)][X17][NMeF][X1][PhLac]))	3.72
CCCC[C@@H]1NC(=O)[C@H](Cc2ccccc2F)NC(=O)[C@H](CC(C)C)NC(=O)[C@H](Cc2cncnc2)NC(=O)[C@H](C)N(C)C(=O)[C@H](Cc2ccccc2)OC(=O)C23CC(CNC(=O)[C@H](Cc4cccnc4)N(C)C1=O)(C2)C3 [compound 129, cyclo(FLac-NMeA-PyrimAla-L-Phe2F-Nle-NMe3Pal-amBCP)] (cyclo([PhLac][NMeA][Ala(pyrimidin-5-yl)]L[Phe(2-F)][Nle][NMe3Pal][X1]))	> 50.8
CCCC[C@@H]1NC(=O)[C@H](Cc2ccccc2F)NC(=O)[C@H](CCCCF)NC(=O)[C@H](Cc2cncnc2)NC(=O)[C@H](C)N(C)C(=O)[C@H](Cc2ccccc2)OC(=O)C23CC(CNC(=O)[C@H](Cc4ccccc4)N(C)C1=O)(C2)C3 [compound 130, cyclo(FLac-NMeA-PyrimAla-NleF-Phe2F-Nle-NMeF-amBCP)] (cyclo([NMeA][Ala(pyrimidin-5-yl)][X17][Phe(2-F)][Nle][NMeF][X1][PhLac]))	2.03
CCCC[C@@H]1NC(=O)[C@H](Cc2cncnc2)NC(=O)[C@H](C)N(C)C(=O)[C@H](Cc2ccccc2)OC(=O)C23CC(CNC(=O)[C@H](Cc4ccccc4)N(C)C(=O)[C@H](CCCCF)NC(=O)[C@H](Cc4ccccc4F)NC1=O)(C2)C3 [compound 131, cyclo(FLac-NMeA-PyrimAla-Nle-Phe2F-NleF-NMeF-amBCP)] (cyclo([NMeA][Ala(pyrimidin-5-yl)][Nle][Phe(2-F)][X17][NMeF][X1][PhLac]))	2.33
CCCC[C@@H]1NC(=O)[C@H](Cc2cncnc2)NC(=O)[C@H](C)N(C)C(=O)[C@H](Cc2ccccc2)OC(=O)C23CC(CNC(=O)[C@H](Cc4ccccc4)N(C)C(=O)[C@H](CCC(C)C)NC(=O)[C@H](Cc4ccccc4F)NC1=O)(C2)C3 [compound 132, cyclo(FLac-NMeA-PyrimAla-Nle-Phe2F-hL-NMeF-amBCP)] (cyclo([NMeA][Ala(pyrimidin-5-yl)][Nle][Phe(2-F)][hLeu][NMeF][X1][PhLac]))	1.11
CC(C)CC[C@@H]1NC(=O)[C@H](Cc2ccccc2F)NC(=O)[C@H](CCCF)NC(=O)[C@H](Cc2cncnc2)NC(=O)[C@H](C)N(C)C(=O)[C@H](Cc2ccccc2)OC(=O)C23CC(CNC(=O)[C@H](Cc4ccccc4)N(C)C1=O)(C2)C3 [compound 133, cyclo(FLac-NMeA-PyrimAla-NvaF-Phe2F-hL-NMeF-amBCP)] (cyclo([NMeA][Ala(pyrimidin-5-yl)][X4][Phe(2-F)][hLeu][NMeF][X1][PhLac]))	2.26
CC(C)CC[C@@H]1NC(=O)[C@H](Cc2ccccc2F)NC(=O)[C@H](CC2CCC2)NC(=O)[C@H](Cc2cncnc2)NC(=O)[C@H](C)N(C)C(=O)[C@H](Cc2ccccc2)OC(=O)C23CC(CNC(=O)[C@H](Cc4ccccc4)N(C)C1=O)(C2)C3 [compound 134, cyclo(FLac-NMeA-PyrimAla-cBuA-Phe2F-hL-NMeF-amBCP)] (cyclo([Cba][Phe(2-F)][hLeu][NMeF][X1][PhLac][NMeA][Ala(pyrimidin-5-yl)]))	0.33
CC(C)CC[C@@H]1NC(=O)[C@H](Cc2ccccc2F)NC(=O)[C@H](CC2CCCC2)NC(=O)[C@H](Cc2cncnc2)NC(=O)[C@H](C)N(C)C(=O)[C@H](Cc2ccccc2)OC(=O)C23CC(CNC(=O)[C@H](Cc4ccccc4)N(C)C1=O)(C2)C3 [compound 135, cyclo(FLac-NMcA-PyrimAla-cPeA-Phe2F-hL-NMeF-amBCP)] (cyclo([Ala(cPent)][Phe(2-F)][hLeu][NMeF][X1][PhLac][NMeA][Ala(pyrimidin-5-yl)]))	0.285
CC(C)CC[C@@H]1NC(=O)[C@H](Cc2ccccc2F)NC(=O)[C@H](CC(C)(C)F)NC(=O)[C@H](Cc2cncnc2)NC(=O)[C@H](C)N(C)C(=O)[C@H](Cc2ccccc2)OC(=O)C23CC(CNC(=O)[C@H](Cc4ccccc4)N(C)C1=O)(C2)C3 [compound 136, cyclo(FLac-NMeA-PyrimAla-Leu3F-Phe2F-hL-NMeF-amBCP)] (cyclo([NMeA][Ala(pyrimidin-5-yl)][X40][Phe(2-F)][hLeu][NMeF][X1][PhLac]))	7.73
CCCC[C@@H]1NC(=O)[C@H](Cc2ccc(O)cc2)NC(=O)[C@H](CC2CCCCC2)NC(=O)[C@H](CCCCN)NC(=O)[C@H](CCCNC(=N)N)NC(=O)[C@H](Cc2cccc3ccccc23)NC(=O)CSC[C@H](C(N)=O)NC(=O)[C@H](Cc2ccccc2)N(C)C1=O [compound 139, cyclo(INal-R-K-Cha-Y-Nle-NMeF-dCl-ClAc)]	> 50.8
CCCC[C@@H]1NC(=O)[C@H](Cc2ccc(CN)cc2)NC(=O)[C@H](CCCNC(=N)N)NC(=O)[C@H](Cc2cccc3ccccc23)NC(=O)CSC[C@](C)(C(=O)O)NC(=O)[C@H](Cc2ccccc2)N(C)C(=O)[C@H](CCCC)NC(=O)[C@H](Cc2ccc(O)cc2)NC1=O [compound 144, cyclo(1Nal-R-Phe4CH2NH2-Nle-Y-Nle-NMeF-daMeC-ClAc)] ({CH2CO}-[1Nal]R[Phe(4-CH2NH2)][Nle]Y[Nle][NMeF][d(αMeC)]-OH; thioether N-8)	> 50.8
CCCCC[C@@H]1NC(=O)[C@H](Cc2ccc(OC)cc2)NC(=O)[C@H](CC2CCC2)NC(=O)[C@H](Cc2cccnc2)NC(=O)[C@H](C)N(C)C(=O)[C@H](Cc2ccccc2)NC(=O)CSC[C@@](C)(C(N)=O)NC(=O)[C@H](Cc2ccccc2)N(C)C1=O [compound 158, cyclo(F-NMeA-3Pal-cBuA-TyrOMe-Ahp-NMeF-aMeCl-ClAc)] ({CH2CO}-F[NMeA][3Pal][Cba]Y(Me)[Ahp(2)][NMeF][αMeC]-NH2; thioether N-8)	> 50.8
CCCC[C@@H]1NC(=O)[C@H](Cc2cccnc2)NC(=O)[C@H](C)N(C)C(=O)[C@H](Cc2ccccc2)NC(=O)CSC[C@@](C)(C(N)=O)NC(=O)[C@H](Cc2ccccc2)N(C)C(=O)[C@H](CCCC)NC(=O)[C@H](Cc2ccccc2F)NC1=O [compound 159, cyclo(F-NMeA-3Pal-Nle-Phe2F-Nle-NMeF-aMeCl-ClAc)] ({CH2CO}-F[NMeA][3Pal][Nle][Phe(2-F)][Nle][NMeF][αMeC]-NH2; thioether N-8)	21
CCCC[C@@H]1NC(=O)[C@H](Cc2cccnc2)NC(=O)[C@H](CCCNC(=N)N)NC(=O)[C@H](Cc2ccccc2)NC(=O)CSC[C@@](C)(C(N)=O)NC(=O)[C@H](Cc2ccccc2)N(C)C(=O)[C@H](CCCC)NC(=O)[C@H](Cc2ccccc2F)NC1=O [compound 160, cyclo(F-R-3Pal-Nle-Phe2F-Nle-NMeF-aMeCl-ClAc)] ({CH2CO}-FR[3Pal][Nle][Phe(2-F)][Nle][NMeF][αMeC]-NH2; thioether N-8)	> 50.8
CCCC[C@@H]1NC(=O)[C@H](Cc2cccnc2)NC(=O)[C@H](C)N(C)C(=O)[C@H](Cc2ccccc2)NC(=O)C23CC(CNC(=O)[C@H](Cc4cccnc4)N(C)C(=O)[C@H](CCCC)NC(=O)[C@H](Cc4ccccc4F)NC1=O)(C2)C3 [compound 162, cyclo(F-NMeA-3Pal-Nle-Phe2F-Nle-NMe3Pal-amBCP)] (cyclo(F[NMeA][3Pal][Nle][Phe(2-F)][Nle][NMe3Pal][X1]))	> 50.8
CCCC[C@@H]1NC(=O)[C@H](Cc2cccnc2)NC(=O)[C@H](C)N(C)C(=O)[C@H](Cc2cccnc2)NC(=O)C23CC(CNC(=O)[C@H](Cc4cccnc4)N(C)C(=O)[C@H](CCCC)NC(=O)[C@H](Cc4ccccc4F)NC1=O)(C2)C3 [compound 163, cyclo(3Pal-NMeA-3Pal-Nle-Phe2F-Nle-NMe3Pal-amBCP)] (cyclo([3Pal][NMeA][3Pal][Nle][Phe(2-F)][Nle][NMe3Pal][X1]))	> 50.8
CCCC[C@@H]1NC(=O)[C@H](Cc2cccnc2)NC(=O)[C@H](C)N(C)C(=O)[C@H](Cc2ccc(C)nc2)NC(=O)C23CC(CNC(=O)[C@H](Cc4cccnc4)N(C)C(=O)[C@H](CCCC)NC(=O)[C@H](Cc4ccccc4F)NC1=O)(C2)C3 [compound 164, cyclo(4Me3Pal-NMeA-3Pal-Nle-Phe2F-Nle-NMe3Pal-amBCP)] (cyclo([3Pal][Nle][Phe(2-F)][Nle][NMe3Pal][X1][X27][NMeA]))	> 50.8
CCCC[C@@H]1NC(=O)[C@H](Cc2cccnc2)NC(=O)[C@H](C)N(C)C(=O)[C@H](Cc2ccc(F)nc2)NC(=O)C23CC(CNC(=O)[C@H](Cc4cccnc4)N(C)C(=O)[C@H](CCCC)NC(=O)[C@H](Cc4ccccc4F)NC1=O)(C2)C3 [compound 165, cyclo(4F3Pal-NMeA-3Pal-Nle-Phe2F-Nle-NMe3Pal-amBCP)] (cyclo([3Pal][Nle][Phe(2-F)][Nle][NMe3Pal][X1][X25][NMeA]))	> 50.8
CCCC[C@@H]1NC(=O)[C@H](Cc2cccnc2)NC(=O)[C@H](C)N(C)C(=O)[C@H](Cc2cccc(C)c2)NC(=O)C23CC(CNC(=O)[C@H](Cc4cccnc4)N(C)C(=O)[C@H](CCCC)NC(=O)[C@H](Cc4ccccc4F)NC1=O)(C2)C3 [compound 166, cyclo(Phe3Me-NMeA-3Pal-Nle-Phe2F-Nle-NMe3Pal-amBCP)] (cyclo([3Pal][Nle][Phe(2-F)][Nle][NMe3Pal][X1][Phe(3-Me)][NMeA]))	32.3
CCCC[C@@H]1NC(=O)[C@H](Cc2cccnc2)NC(=O)[C@H](C)N(C)C(=O)[C@H](Cc2ccc(F)cc2)NC(=O)C23CC(CNC(=O)[C@H](Cc4cccnc4)N(C)C(=O)[C@H](CCCC)NC(=O)[C@H](Cc4ccccc4F)NC1=O)(C2)C3 [compound 167, cyclo(Phe4F-NMeA-3Pal-Nle-Phe2F-Nle-NMe3Pal-amBCP)] (cyclo([3Pal][Nle][Phe(2-F)][Nle][NMe3Pal][X1][Phe(4-F)][NMeA]))	42.8
CCCC[C@@H]1NC(=O)[C@H](Cc2cccnc2)NC(=O)[C@H](C)N(C)C(=O)[C@H](Cc2ccc(O)cc2)NC(=O)C23CC(CNC(=O)[C@H](Cc4cccnc4)N(C)C(=O)[C@H](CCCC)NC(=O)[C@H](Cc4ccccc4F)NC1=O)(C2)C3 [compound 168, cyclo(Y-NMeA-3Pal-Nle-Phe2F-Nle-NMe3Pal-amBCP)] (cyclo(Y[NMeA][3Pal][Nle][Phe(2-F)][Nle][NMe3Pal][X1]))	46.4
